Numbers after ± are expanded uncertainties.
Assay: activity coefficient (dimensionless); of the first substance listed, at infinite dilution; xn = mol fraction of the nth substance listed
Conditions: 101 kPa, Liquid, x1 = 0

SMILES | activity coefficient (303 K, Chromatography) | activity coefficient (323 K, Chromatography) | activity coefficient (343 K, Chromatography) | activity coefficient (303 K, Differential ebulliometry) | activity coefficient (323 K, Differential ebulliometry) | activity coefficient (343 K, Differential ebulliometry)
CCCCCCC [heptane] + CCCCn1cc[n+](C)c1.F[B-](F)(F)F | 134 ± 14 | 115 ± 12 | 99 ± 10 | – | – | –
CCc1ccccc1 [ethylbenzene] + CCCCn1cc[n+](C)c1.F[B-](F)(F)F | – | 6.65 ± 0.7 | 7.2 ± 0.76 | – | – | –
CCO [ethanol] + CCCCCCn1cc[n+](C)c1.F[B-](F)(F)F | – | 1.47 ± 0.15 | 1.31 ± 0.13 | – | – | –
c1ccccc1 [benzene] + CCCCCCn1cc[n+](C)c1.F[B-](F)(F)F | 1.63 ± 0.17 | 1.65 ± 0.17 | 1.68 ± 0.18 | – | – | –
C=CCCCC [hex-1-ene] + CCCCCCCC[n+]1ccn(C)c1.F[B-](F)(F)F | 7.92 ± 0.83 | 7.51 ± 0.79 | 7.42 ± 0.78 | – | – | –
CC(C)=O [acetone] + CCCCn1cc[n+](C)c1.F[B-](F)(F)F | – | 1.05 ± 0.11 | 1.11 ± 0.11 | – | – | –
CO [methanol] + CCCCCCn1cc[n+](C)c1.F[B-](F)(F)F | 1.19 ± 0.12 | 1.08 ± 0.11 | 0.99 ± 0.1 | – | – | –
CCC(C)=O [butanone] + CCn1cc[n+](C)c1.F[B-](F)(F)F | – | 1.66 ± 0.17 | 1.77 ± 0.18 | – | – | –
CCCCCC [hexane] + CCCCCCCC[n+]1ccn(C)c1.F[B-](F)(F)F | 13.2 ± 1.4 | 12.8 ± 1.4 | 12.2 ± 1.3 | – | – | –
CCCO [propan-1-ol] + CCCCn1cc[n+](C)c1.F[B-](F)(F)F | – | 2.64 ± 0.28 | 2.28 ± 0.24 | – | – | –
Cc1ccccc1 [toluene] + CCCCCCCC[n+]1ccn(C)c1.F[B-](F)(F)F | – | 1.75 ± 0.18 | 1.82 ± 0.19 | – | – | –
ClC(Cl)Cl [trichloromethane] + CCCCCCn1cc[n+](C)c1.F[B-](F)(F)F | – | 0.81 ± 0.08 | 0.92 ± 0.09 | – | – | –
CC(C)CC(C)(C)C [2,2,4-trimethylpentane] + CCCCCCn1cc[n+](C)c1.F[B-](F)(F)F | 54.1 ± 5.7 | – | 44.5 ± 4.7 | – | – | –
ClC=C(Cl)Cl [trichloroethene] + CCCCn1cc[n+](C)c1.F[B-](F)(F)F | – | 3.98 ± 0.42 | 4.32 ± 0.45 | – | – | –
CCCO [propan-1-ol] + CCn1cc[n+](C)c1.F[B-](F)(F)F | – | 0.95 | 0.87 | – | – | –
CCOCC [diethyl ether] + CCCCCCn1cc[n+](C)c1.F[B-](F)(F)F | – | – | 2.53 ± 0.27 | – | – | –
CCOC(C)=O [ethyl acetate] + CCCCCCn1cc[n+](C)c1.F[B-](F)(F)F | – | 5.58 ± 0.59 | 5.48 ± 0.58 | – | – | –
c1ccccc1 [benzene] + CCCCn1cc[n+](C)c1.F[B-](F)(F)F | 2.39 ± 0.25 | 2.43 ± 0.26 | 2.48 ± 0.26 | – | – | –
ClC=C(Cl)Cl [trichloroethene] + CCCCCCCC[n+]1ccn(C)c1.F[B-](F)(F)F | – | 1.67 ± 0.17 | 1.76 ± 0.18 | – | – | –
CCOC(C)=O [ethyl acetate] + CCn1cc[n+](C)c1.F[B-](F)(F)F | – | 3.08 ± 0.32 | 3.32 ± 0.35 | – | – | –
CCC(C)=O [butanone] + CCCCn1cc[n+](C)c1.F[B-](F)(F)F | – | 1.64 ± 0.17 | 1.72 ± 0.18 | – | – | –
CCC(C)=O [butanone] + CCCCCCCC[n+]1ccn(C)c1.F[B-](F)(F)F | – | 1.01 ± 0.1 | 1.04 ± 0.11 | – | – | –

SMILES | activity coefficient (303 K, Chromatography) | activity coefficient (323 K, Chromatography) | activity coefficient (343 K, Chromatography) | activity coefficient (303 K, Differential ebulliometry) | activity coefficient (323 K, Differential ebulliometry) | activity coefficient (343 K, Differential ebulliometry)
CCCCCC [hexane] + CCCCn1cc[n+](C)c1.F[B-](F)(F)F | 93.4 ± 9.8 | 76.5 ± 8.1 | 67.5 ± 7.1 | – | – | –
CC(C)=O [acetone] + CCCCCCCC[n+]1ccn(C)c1.F[B-](F)(F)F | – | 0.78 ± 0.08 | 0.83 ± 0.09 | – | – | –
ClC(Cl)(Cl)Cl [tetrachloromethane] + CCCCCCn1cc[n+](C)c1.F[B-](F)(F)F | – | 3.3 ± 0.35 | 3.61 ± 0.38 | – | – | –
CCOC(C)=O [ethyl acetate] + CCCCn1cc[n+](C)c1.F[B-](F)(F)F | – | 2.86 ± 0.3 | 2.99 ± 0.31 | – | – | –
CCCCCCC [heptane] + CCCCCCn1cc[n+](C)c1.F[B-](F)(F)F | 47.7 ± 5 | 39.9 ± 4.2 | 33.6 ± 3.5 | – | – | –
CC(C)O [propan-2-ol] + CCn1cc[n+](C)c1.F[B-](F)(F)F | – | 1.05 ± 0.11 | 1.01 ± 0.1 | – | – | –
C1CCCCC1 [cyclohexane] + CCCCCCCC[n+]1ccn(C)c1.F[B-](F)(F)F | 8.52 ± 0.9 | 7.99 ± 0.84 | 7.36 ± 0.77 | – | – | –
CCO [ethanol] + CCCCCCCC[n+]1ccn(C)c1.F[B-](F)(F)F | – | 1.24 ± 0.13 | 1.1 ± 0.11 | – | – | –
CCO [ethanol] + CCn1cc[n+](C)c1.F[B-](F)(F)F | – | 0.76 ± 0.08 | – | – | – | –
CCCO [propan-1-ol] + CCCCCCCC[n+]1ccn(C)c1.F[B-](F)(F)F | – | 1.44 ± 0.15 | 1.27 ± 0.13 | – | – | –
C=CCCCC [hex-1-ene] + CCCCCCn1cc[n+](C)c1.F[B-](F)(F)F | 15.9 ± 1.7 | 14.8 ± 1.6 | 14.8 ± 1.6 | – | – | –
ClCCCl [1,2-dichloroethane] + CCn1cc[n+](C)c1.F[B-](F)(F)F | – | 1.32 ± 0.14 | 1.37 ± 0.14 | – | – | –
CCCO [propan-1-ol] + CCCCCCn1cc[n+](C)c1.F[B-](F)(F)F | – | 1.86 ± 0.19 | 1.63 ± 0.17 | – | – | –
C1CCCCC1 [cyclohexane] + CCn1cc[n+](C)c1.F[B-](F)(F)F | 53.7 ± 5.7 | 46.2 ± 4.9 | 38.9 ± 4.1 | – | – | –
CCc1ccccc1 [ethylbenzene] + CCCCCCCC[n+]1ccn(C)c1.F[B-](F)(F)F | – | 2.35 ± 0.25 | 2.66 ± 0.28 | – | – | –
C1CCCCC1 [cyclohexane] + CCCCCCn1cc[n+](C)c1.F[B-](F)(F)F | – | – | – | 18.6 ± 1.9 | 16.5 ± 1.6 | 15.2 ± 1.5
C=CCCCC [hex-1-ene] + CCCCn1cc[n+](C)c1.F[B-](F)(F)F | 35.4 ± 3.7 | 32.2 ± 3.4 | 30.5 ± 3.2 | – | – | –
CC(C)=O [acetone] + CCn1cc[n+](C)c1.F[B-](F)(F)F | – | 1.11 ± 0.11 | 1.14 ± 0.12 | – | – | –
ClC(Cl)Cl [trichloromethane] + CCCCCCCC[n+]1ccn(C)c1.F[B-](F)(F)F | – | 0.62 ± 0.07 | 0.7 ± 0.07 | – | – | –
Cc1ccccc1 [toluene] + CCn1cc[n+](C)c1.F[B-](F)(F)F | – | – | 4.03 ± 0.42 | – | – | –
CCCCCC [hexane] + CCn1cc[n+](C)c1.F[B-](F)(F)F | 125 ± 13 | 113 ± 12 | 64.8 ± 6.8 | – | – | –
CCO [ethanol] + CCCCn1cc[n+](C)c1.F[B-](F)(F)F | – | 1.91 ± 0.2 | 1.63 ± 0.17 | – | – | –

SMILES | activity coefficient (303 K, Chromatography) | activity coefficient (323 K, Chromatography) | activity coefficient (343 K, Chromatography) | activity coefficient (303 K, Differential ebulliometry) | activity coefficient (323 K, Differential ebulliometry) | activity coefficient (343 K, Differential ebulliometry)
C=CCCCC [hex-1-ene] + CCn1cc[n+](C)c1.F[B-](F)(F)F | 46.2 ± 4.9 | 43.2 ± 4.5 | 36.6 ± 3.9 | – | – | –
CCOCC [diethyl ether] + CCCCCCCC[n+]1ccn(C)c1.F[B-](F)(F)F | – | 3.2 ± 0.34 | 3.39 ± 0.36 | – | – | –
ClC(Cl)Cl [trichloromethane] + CCCCn1cc[n+](C)c1.F[B-](F)(F)F | – | 1.13 ± 0.12 | 1.29 ± 0.13 | – | – | –
ClC=C(Cl)Cl [trichloroethene] + CCn1cc[n+](C)c1.F[B-](F)(F)F | – | 3.66 ± 0.38 | 3.79 ± 0.4 | – | – | –
CCCCCCC [heptane] + CCCCCCCC[n+]1ccn(C)c1.F[B-](F)(F)F | 16.7 ± 1.8 | 16.3 ± 1.7 | 15.2 ± 1.6 | – | – | –
CO [methanol] + CCCCCCCC[n+]1ccn(C)c1.F[B-](F)(F)F | 1.09 ± 0.11 | 0.94 ± 0.1 | 0.85 ± 0.09 | – | – | –
CCc1ccccc1 [ethylbenzene] + CCn1cc[n+](C)c1.F[B-](F)(F)F | – | 7.05 ± 0.74 | 6.87 ± 0.72 | – | – | –
CC(C)=O [acetone] + CCCCCCn1cc[n+](C)c1.F[B-](F)(F)F | – | 0.85 ± 0.09 | 0.91 ± 0.09 | – | – | –
ClC(Cl)Cl [trichloromethane] + CCn1cc[n+](C)c1.F[B-](F)(F)F | – | 0.73 ± 0.08 | 0.84 ± 0.09 | – | – | –
CCOC(C)=O [ethyl acetate] + CCCCCCCC[n+]1ccn(C)c1.F[B-](F)(F)F | – | 1.55 ± 0.16 | 1.62 ± 0.17 | – | – | –
CC(C)CC(C)(C)C [2,2,4-trimethylpentane] + CCCCCCCC[n+]1ccn(C)c1.F[B-](F)(F)F | – | 17.7 ± 1.9 | 17 ± 1.8 | – | – | –
Cc1ccccc1 [toluene] + CCCCn1cc[n+](C)c1.F[B-](F)(F)F | – | 4.14 ± 0.44 | 4.13 ± 0.43 | – | – | –
CCCCCCC [heptane] + CCn1cc[n+](C)c1.F[B-](F)(F)F | 202 ± 21 | 173 ± 18 | 139 ± 15 | – | – | –
CC(C)O [propan-2-ol] + CCCCn1cc[n+](C)c1.F[B-](F)(F)F | – | 2.47 ± 0.11 | 2.17 ± 0.1 | – | – | –
c1ccccc1 [benzene] + CCn1cc[n+](C)c1.F[B-](F)(F)F | 2.42 ± 0.25 | 2.51 ± 0.26 | 2.47 ± 0.26 | – | – | –
ClCCCl [1,2-dichloroethane] + CCCCCCn1cc[n+](C)c1.F[B-](F)(F)F | – | 1.06 ± 0.11 | 1.19 ± 0.12 | – | – | –
Cc1ccccc1 [toluene] + CCCCCCn1cc[n+](C)c1.F[B-](F)(F)F | – | – | 2.61 ± 0.27 | – | – | –
c1ccccc1 [benzene] + CCCCCCCC[n+]1ccn(C)c1.F[B-](F)(F)F | 1.28 ± 0.13 | 1.29 ± 0.13 | 1.29 ± 0.13 | – | – | –
CO [methanol] + CCCCn1cc[n+](C)c1.F[B-](F)(F)F | 1.32 ± 0.14 | 1.21 ± 0.12 | 1.07 ± 0.11 | – | – | –
CCc1ccccc1 [ethylbenzene] + CCCCCCn1cc[n+](C)c1.F[B-](F)(F)F | – | 3.63 ± 0.38 | 4.05 ± 0.43 | – | – | –
CCOCC [diethyl ether] + CCCCn1cc[n+](C)c1.F[B-](F)(F)F | – | – | 8.05 ± 0.85 | – | – | –

Source: the NIST ThermoML archive (doi:10.1021/je050544m)
